Data from US12570661B2, “Isoform-specific aldehyde dehydrogenase inhibitors” (The Board of Trustees of the Leland Stanford Junior …, priority 2020, dated 2026).
pIC50: −log10 of the molar value. “Also recorded” adds a separate entry of the source. Each block holds one compound with its values, some of them ahead of it.

Key:
ALDH1B1 [1] = molecular target: T1, ALDH1B1 (Homo sapiens, UniProt P30837); experiment: ALDH1B1 enzyme kinetics assay (NADH fluorescence, acetaldehyde substrate); assay type: biochemical; parameters: made in house; host or cells: E. coli BL21 (optionally co-expressed with GroEL/GroES); conditions: for ALDH1B1 inhibition / isoform selectivity (in words): enzyme kinetics assays against ALDH isoforms; for pIC50: 1 μg/mL enzyme, 1 mM acetaldehyde, 1 mM NAD+, read-out: ALDH1B1(in vitro) IC50
T1 sequence (P30837 18-517): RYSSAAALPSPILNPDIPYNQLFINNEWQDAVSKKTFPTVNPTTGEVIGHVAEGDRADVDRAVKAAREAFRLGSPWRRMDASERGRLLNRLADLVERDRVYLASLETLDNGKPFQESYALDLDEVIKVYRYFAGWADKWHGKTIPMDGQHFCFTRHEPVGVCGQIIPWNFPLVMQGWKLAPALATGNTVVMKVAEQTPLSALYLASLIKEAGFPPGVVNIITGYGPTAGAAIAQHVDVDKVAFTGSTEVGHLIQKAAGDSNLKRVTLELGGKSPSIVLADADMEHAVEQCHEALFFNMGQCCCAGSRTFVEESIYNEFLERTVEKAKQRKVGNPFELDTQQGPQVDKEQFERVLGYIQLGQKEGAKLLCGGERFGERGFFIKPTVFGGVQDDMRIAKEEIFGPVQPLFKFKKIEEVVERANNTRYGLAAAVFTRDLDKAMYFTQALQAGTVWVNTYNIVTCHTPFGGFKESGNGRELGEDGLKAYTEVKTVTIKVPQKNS
Procedure: Cloning, expression, and purification of human recombinant ALDH1A1, ALDH1A3, ALDH2, ALDH3A1, ALDH3A2, ALDH4A1, ALDH5A1 and ALDH7A1 isozymes were conducted as described previously (Chen, C. H. et al. (2015) Proc. Natl. Acad. Sci. U.S.A. 112, 3074-3079). Human ALDH1A2 (Origene, SC109995) and ALDH1B1 (T. Hurley, Indiana University) plasmids were cloned into the pET-15b expression vector (Novagen, 69661-3) containing an N-terminal hexahistidine tag. The mitochondria-targeting sequence of ALDH1B1 was also removed. For protein expression without chaperones, the pET-15b based plasmids were transformed into competent BL21 E. coli cells, which were subsequently grown in 1 L of Luria-Bertani medium containing 100 μg/mL ampicillin at 37° C. Once the OD600 value reached 0.6, the culture was transferred to 16° C. and 0.5 mM isopropyl β-d-1-thiogalactopyranoside was introduced to induce protein expression overnight. The bacteria were then pelleted by centrifugation (3000×g, 4° C. for 30 rain) and harvested. 40 mL BugBuster Master Mix buffer (MilliporeSigrna) containing a protease inhibitor cocktail (cOmplete; Roche) was added, and the cells were lysed by mechanically rolling the suspension at room temperature for 25 min. The lysate was centrifuged (16000×g, 4° C. for 30 min), and the soluble fraction was collected and mixed with 2 mL of Ni-NTA Superflow resin (Qiagen). After the mixture was avowed to rock at 4° C. for 1 h, it was used to create a 10-mL gravity column, which was sequentially treated with 40 mL of wash buffer 1 (20 mM sodium phosphate, 500 mM NaCl, 1 mM DTT, 20 mM imidazole, 5% glycerol, pH 7.4) and 25 mL of wash buffer 2 (20 mM sodium phosphate, 500 mM NaCl, 1 mM DTT, 40 mM imidazole, 5% glycerol, pH 7.4). The hexahistidine-tagged protein was then recovered by treated the column with 5 mL elution buffer (20 mM sodium phosphate, 500 mM NaCl, 1 mM DTT, 400 mM imidazole, 5% glycerol, pH 7.4) and collecting 500-μL fractions. The protein concentration for each fraction was measured (500 μL elution volume was collected as one fraction and was immediately mixed with 500 μL glycerol. The protein concentration for each fraction was measured (600 nm Protein Assay Reagent; Thermo Fisher Scientific), and protein-containing fractions were diluted with an equal volume of glycerol and stored at −80° C. Samples from each step were also collected for SDS-PAGE gel analysis. For ALDH1B1 protein co-expression with chaperones, pET-15b-ALDH1B1 and GroEL/GroES (Addgene, plasmid pBB541) plasmids were co-transformed into competent BL21 E. coli cells, which were subsequently grown in 1 L of Luria-Bertani medium containing 100 μg/mL ampicillin and 50 μg/mL spectinomycin at 37° C. The hexahistidine-tagged ALDH1B1 protein was then expressed and purified as described above.
To evaluate compound activities against ALDH isoforms, reaction mixtures consisting of enzyme assay buffer (100 mM sodium phosphate, 1 mM MgCl2, pH 8.0) and 0.1% DMSO, 1 mM β-mercaptoethanol, 1 mM NAD^+, and the bacterially expressed protein were prepared in white opaque 96-well assay plates (100 μL/well, flat-bottom and non-treated; Corning Costar). 5 μg/mL ALDH enzyme was used for single-dose (1, 10, 50 μM) compound test, and 1 μg/mL ALDH enzyme was used for IC50s determination. Acetaldehyde was then added to each well to achieve an initial substrate concentration of 1 mM, and the resulting enzymatic activity was measured based on NADH fluorescence. The fluorescence signal was read over the course of 10 min on a SpectraMax M2e microplate reader (340-nm excitation and 460-nm emission; Molecular Devices) operated by SoftMax Pro software. Compound activities were normalized to a DMSO control, and dose-response inhibition curves were fitted with four-parameter non-linear regression using Prism software. […]

[2] = HEK-293T cytotoxicity (cell viability) assay; assay type: cell-based; conditions: human, HEK-293T cells; adherent HEK-293T, 4-5 days, CellTiter-Glo; read-out: HEK293T GI50
Procedure: HEK-293T cells were seeded into a 96-well plate at a density of 5×10^3 cells/well and treated with varying concentrations of selected compounds or an equivalent amount of DMSO vehicle. The cells were cultured for 4-5 days without a media change, and after the DMSO-treated cells approached 100% confluence, the cell viabilities were measured using a CellTiter-Glo 3D Cell Viability Assay kit (Promega) and a Veritas microplate luminometer (Turner BioSystems) as described above.

ALDH1B1 [3] = molecular target: T1, ALDH1B1; experiment: ALDEFLUOR assay of cellular ALDH1B1 activity in ALDH1B1-transfected ALDH1A3−/− A375 cells; assay type: cell-based; conditions: for effect on ALDH1B1-dependent ALDEFLUOR signal (cellular ALDH1B1 activity): flow cytometry
Procedure: ALDH1A3^−/− A375 cells were seeded into a 6-well plate at a density of 5×10^5 cells/well and cultured for 24 h. The cells were then transfected with either pCMV6-entry, pCMV6-GFP (Addgene, plasmid 11153), or pCMV-ALDH1B1. After 24 h, the media was replaced and transfection efficiencies were estimated by the EGFP-positive cells in the pCMV-GFP-transfected well. The cells were cultured for another 24 h and their ALDH activities were quantified using the ALDEFLUOR assay. Briefly, the cells were isolated from the plate with trypsin and resuspended in ALDEFLUOR assay buffer (STEMCELL Technologies) at a concentration of 4×10^5 cells/mL. Each ALDEFLUOR assay used 0.5 mL of this cell suspension, and the cells were treated with individual compounds for 15 min at 37° C. and 5% CO2. The cell suspensions were then treated with 2.5 μL ALDEFLUOR reagent and incubated for an additional 30 min at 37° C. and 5% CO2. The cells were then collected by centrifugation (450×g) for 5 min at room temperature, resuspended in 200 μL assay buffer, and analyzed with an LSR II flow cytometer (BD Biosciences) at the Stanford FACS facility.

NIH-3T3 cells = experiment: Seahorse oxygen-consumption-rate assay (NIH3T3); assay type: cell-based, murine; conditions: Mus musculus
SW480 cells (spheroid) = experiment: Matrigel spheroid growth / viability assay, SW480; assay type: cell-based
Procedure: To prepare Matrigel-coated culture plates, 96-well and 24-well plates were placed on ice and coated with 25 μL or 300 μL, respectively, of Matrigel matrix (Corning, LDEV-free) that had been thawed overnight at 4° C. The plates were then placed in a 37° C. incubator for 30 min to allow the Matrigel to solidify. SW480 or HCT116 cells were suspended in spheroid culture medium (RPMI-1640 containing 20 ng/mL recombinant human epidermal growth factor (Abcam, ab9697), 20 ng/mL recombinant human fibroblast growth factor (BioVision, 4037), 5 μg/mL heparin (Sigma), 1× N-2 supplement (Thermo Fisher Scientific), 100 U/mL penicillin, and 100 μg/mL streptomycin) and then seeded into the 96-well and 24-well Matrigel-coated plates at densities of 1,000 or 5,000 cells/well and total well volumes of […] or 1 mL, respectively. Compounds were diluted in spheroid culture medium and added to the wells, and the spheroid were grown at 37° C. with 5% CO2 for 7 days.
To quantify spheroid growth at the 7-day endpoint, unstained spheroids were imaged with phase-contrast illumination using a Keyence BZ-X710 microscope. Some cultures were also stained with crystal violet to enable brightfield imaging. Briefly, the Matrigel spheroids cultures were treated with PBS containing 0.5% crystal violet and 5% methanol for 15 min at 37° C. and then gently washed 4×5 min with PBS. Spheroid sizes were quantified with ImageJ (Fiji) software using masks created with the default “Threshold” function and foreground/background adjustments to optimize masking fidelity. The full field of view was then selected for “Analyze Particles” analysis, providing numbered list of each spheroid and its area in the micrograph. In the few cases that two adjacent spheroids were treated as one object by the image processing software, their measurements were manually corrected using the “Freehand Selections” tool. To exclude background and debris from dead cells, spheroids with areas less than 500 μm^2 were excluded from the image analyses.
(§1) SW480 or HCT116 cells were seeded into regular or Matrigel-coated 96-well plates at a density of 1000 cells/well. The cells were cultured in the corresponding adherent or spheroid culture medium (200 μL/well) containing the designated compounds or an equivalent amount of DMSO vehicle. Each culture was maintained for 7 days, and then cell viabilities were measured using a CellTiter-Glo 3D Cell Viability Assay kit (Promega). Briefly, 100 μL of the culture medium was removed from each well and replaced with 100 μL 3D Cell Assay reagent. The cells in each well were next homogenized by vigorous pipetting, and the plate was incubated for 10 min at room temperature to stabilize the chemiluminescent signal. A 150-μL aliquot from each well was then transferred into a white opaque 96-well assay plate (flat-bottom and non-treated; Corning Costar) and luminescence intensities were measured with a Veritas microplate luminometer (Turner BioSystems).

SW480 cells (adherent) = experiment: Cell viability assay, adherent SW480 cultures; assay type: cell-based, human; conditions: Homo sapiens, SW480, 168 h; adherent culture, 7 days
Procedure: as §1

Compound: CCN(CC)c1ccc(C=O)cc1 [DEAB, N-diethylaminobenzaldehyde, reference compound]
effect on ALDH1B1-dependent ALDEFLUOR signal (cellular ALDH1B1 activity) (ALDH1B1 [3]): inhibited; also recorded: abrogated

Compound: COc1ccccc1N1C=C(c2ccc(-c3ccccc3)cc2)N2CCCCN=C21 [HPI-269]
pIC50 (NIH-3T3 cells): 6.24
pIC50 (ALDH1B1 [3]; ALDEFLUOR, ALDH1B1-overexpressing ALDH1A3−/− A375 cells, read-out: ALDH1B1(in cellulo) IC50): 6.96
pIC50 (ALDH1B1 [1]): 7.09
GI50 [2]: 3.4 µM

Compound: COc1ccccc1-n1cc(-c2ccc(-c3ccncc3)cc2)[n+]2c1CCCCC2.[Br-] [Imidazolium 13]
potency against ALDH1B1 relative to imidazolium 2 (and 8) (ALDH1B1 [1]; dose-response, FIG. 15 panel d): approximately 2 fold
ALDH1B1 inhibition / isoform selectivity (in words) (ALDH1B1 [1]): ALDH1B1-specific inhibitors; also recorded: enhanced specificity for ALDH1B1 in comparison to imidazolium 2

Compound: COc1ccccc1-c1ccc(C2=CN(c3ccccc3OC)C3=NCCCCN23)cc1 [Compound 72]
effect on ALDH1B1-dependent ALDEFLUOR signal (cellular ALDH1B1 activity) (ALDH1B1 [3]): inhibit cellular ALDH1B1 activity
efficacy on SW480 spheroid growth in combination with 5-FU (SW480 cells (spheroid); combination with 5-FU): closely matched the product of their individual activities

Compound: CCOc1ccc(C2=CN(c3ccc(-c4ccccc4OC)cc3)C3=NCCCN23)c(OC)c1 [Guanidine 65]
GI50 (SW480 cells (adherent)): 2900 nM
GI50 (SW480 cells (spheroid); Homo sapiens, SW480, 168 h, Matrigel spheroid culture, 7 days, read-out: Spheroid SW480 GI50): 1600 nM
pIC50 (ALDH1B1 [1]): 6.89

The next lines start with results.

ALDH1B1 inhibition / isoform selectivity (in words) (ALDH1B1 [1]): ALDH1B1-selective inhibitors
Compound: Br.COc1ccccc1C1=CN(c2ccc(-c3ccccc3)cc2)C2=NCCCCN12 [Guanidine 68]

pIC50 (ALDH1B1 [1]): 7.28
Compound: CCc1cc(Cl)ccc1C1=CN(c2ccc(-c3ccccc3)cc2)C2=NCCCN12 [STL8-T-0002]
GI50 [2]: 1.5 µM

pIC50 (ALDH1B1 [1]): 7.36
Compound: CCc1ccccc1C1=CN(c2ccc(-c3ccccc3)cc2)C2=NCCCCN12 [STL5-T-0027]
GI50 [2]: 4.3 µM
